Laboratory results: patent US20020137750A1, “Amidine derivatives which are inhibitors of nitric oxide synthase” (priority 1999, published 2002)

Row | melting point [°C] | SMILES
1 | 116 to 118 | CN(CCO)Cc1cc(NC(=N)c2cccs2)ccc1C1CCCC1 [Example 30, N-(4-Cyclopentyl-3-{[(2-Hydroxyethyl)(Methyl)Amino]Methyl}Phenyl)-2-Thiophenecarboximidamide]
2 | 132 to 133 | N=C(Nc1ccc(C2CCCC2)c(CN2CCC[C@H]2CO)c1)c1cccs1 [Example 31, N-(4-Cyclopentyl-3-{[(2S)-2-(Hydroxymethyl)Pyrrolidinyl]Methyl}Phenyl)-2-Thiophenecarboximidamide]
3 | 126 to 127 | N=C(Nc1ccc(OC2CCCC2)c(CN2CCC[C@@H]2CO)c1)c1cccs1 [Example 21, N-(4-(Cyclopentyloxy)-3{[(2R)-2-(Hydroxymethyl)Pyrrolidinyl]Methyl}Phenyl)-2-Thiophenecarboximidamide]
